Measurements reported in patent US20230278981A1, “DICHLOROPHENOL HSD17B13 INHIBITORS AND USES THEREOF” (INIPHARM, INC., priority 2020, published 2023).
pIC50: −log10 of the molar value.

What follows are compounds tested against HSD17B13 (Homo sapiens (Human), UniProt Q7Z5P4) (assay: LC/MS estrone detection assay: conversion of estradiol to estrone by HSD17B13). Conditions: 4 μM estradiol, 6 mM NAD+, 30 nM HSD17B13 enzyme (E. coli expressed His-tagged), 2 hours at 26.5° C.
Chain of HSD17B13 (Q7Z5P4 20-300): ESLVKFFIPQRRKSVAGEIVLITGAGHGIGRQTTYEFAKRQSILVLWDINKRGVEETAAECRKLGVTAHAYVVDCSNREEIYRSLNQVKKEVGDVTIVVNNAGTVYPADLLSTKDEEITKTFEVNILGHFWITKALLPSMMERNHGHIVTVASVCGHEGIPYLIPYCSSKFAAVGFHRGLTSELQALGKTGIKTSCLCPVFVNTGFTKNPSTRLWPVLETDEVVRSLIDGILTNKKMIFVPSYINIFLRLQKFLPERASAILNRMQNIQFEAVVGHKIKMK
Type: biochemical
Outline: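 His-tagged E. coli-expressed HSD17B13 (30 nM) with 4 μM estradiol and 6 mM NAD+ in 1 M potassium phosphate pH 7.4, 0.5% DMSO, 2 h at 26.5° C. Estrone and estradiol quantified by LC-MS/MS after MeCN quench with D4-estrone internal standard; activity as % of uninhibited enzyme, IC50 by four-parameter fit, duplicates.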
In the case of `O=C(Nc1cccc2ncn([C@H]3CC[C@@H]3c3ccccc3)c(=O)c12)c1cc(Cl)c(O)c(Cl)c1` [Example 121, 3,5-dichloro-4-hydroxy-N-(4-oxo-3-((1S,2R)-2-phenylcyclobutyl)-3,4-dihydroquinazolin-5-yl)benzamide], the pIC50 was 6.30 to 7.00. Compound `O=C(Nc1cccc2ncn(Cc3cccnc3Cl)c(=O)c12)c1cc(Cl)c(O)c(Cl)c1` [Example 122, 3,5-dichloro-N-(3-((2-chloropyridin-3-yl)methyl)-4-oxo-3,4-dihydroquinazolin-5-yl)-4-hydroxybenzamide] has a pIC50 of 6.30 to 7.00. `O=C(Nc1cccc2ncn(C(CN3CCOCC3)c3ccccc3)c(=O)c12)c1cc(Cl)c(O)c(Cl)c1` (stereo not shown) [Example 123, 3,5-dichloro-4-hydroxy-N-(3-(2-morpholino-1-phenylethyl)-4-oxo-3,4-dihydroquinazolin-5-yl)benzamide] gave a pIC50 of 6.30 to 7.00. With `O=C(Nc1nccc2ncn(Cc3ccccc3OC(F)(F)F)c(=O)c12)c1cc(Cl)c(O)c(Cl)c1` [Example 124, 3,5-dichloro-4-hydroxy-N-(4-oxo-3-(2-(trifluoromethoxy)benzyl)-3,4-dihydropyrido[4,3-d]pyrimidin-5-yl)benzamide] the pIC50 was 5.00 to 6.00. Work on `O=C(Nc1sc(C(F)(F)F)nc1C(=O)NCc1ccccc1OC(F)(F)F)c1cc(Cl)c(O)c(Cl)c1` [Example 125, 5-(3,5-dichloro-4-hydroxybenzamido)-N-(2-(trifluoromethoxy)benzyl)-2-(trifluoromethyl)thiazole-4-carboxamide] yielded a pIC50 of 6.30 to 7.00. With `Cc1nsc(NC(=O)c2cc(Cl)c(O)c(Cl)c2)c1C(=O)N[C@@H](C)c1ccccc1F` [Example 126, (S)-5-(3,5-dichloro-4-hydroxybenzamido)-N-(1-(2-fluorophenyl)ethyl)-3-methylisothiazole-4-carboxamide] the pIC50 was ≥ 7.00. For `O=C(NCc1ccccc1OC(F)(F)F)C1CCCN1C(=O)c1cc(Cl)c(O)c(Cl)n1` (stereo not shown) [Example 127, 1-(4,6-dichloro-5-hydroxypicolinoyl)-N-(2-(trifluoromethoxy)benzyl) pyrrolidine-2-carboxamide], the pIC50 was < 5.00. For `O=C(NCc1ccccc1OC(F)(F)F)C1CCCN1C(=O)c1cc(Cl)c(O)c(Cl)c1` (stereo not shown) [Example 128, 1-(3,5-dichloro-4-hydroxybenzoyl)-N-(2-(trifluoromethoxy)benzyl) pyrrolidine-2-carboxamide], the pIC50 was < 5.00. `O=C(Nc1cccc2ncn(Cc3cccnc3Cl)c(=O)c12)c1cc(Cl)c(O)c(Cl)n1` [Example 129, 4,6-dichloro-N-{3-[(2-chloropyridin-3-yl)methyl]-4. oxo-3,4-dihydroquinazolin-5-yl}-5-hydroxypyridine-2-carboxamide] showed a pIC50 of 6.30 to 7.00. Compound `O=C(Nc1cccc2ncn(Cc3ncccc3F)c(=O)c12)c1cc(Cl)c(O)c(Cl)c1` [Example 130, 3,5-dichloro-N-{3-[(3-fluoropyridin-2-yl)methyl]-4-oxo-3,4-dihydroquinazolin-5-yl}-4-hydroxybenzamide] has a pIC50 of 6.30 to 7.00. `Cc1ccc2ncn(Cc3ccccc3OC(F)(F)F)c(=O)c2c1NC(=O)c1cc(Cl)c(O)c(Cl)n1` [Example 131, 4,6-dichloro-5-hydroxy-N-(6-methyl-4-oxo-3-{[2-(trifluoromethoxy)phenyl]methyl}-3,4-dihydroquinazolin-5-yl)pyridine-2-carboxamide] showed a pIC50 of 6.30 to 7.00. For `O=C(Nc1ccc(F)c2ncn(Cc3ccccc3OC(F)(F)F)c(=O)c12)c1cc(Cl)c(O)c(Cl)c1` [Example 132, 3,5-dichloro-N-(8-fluoro-4-oxo-3-{[2-(trifluoromethoxy)phenyl]methyl}-3,4-dihydroquinazolin-5-yl)-4-hydroxybenzamide], the pIC50 was ≥ 7.00. For `O=C(Nc1ccc(F)c2ncn(Cc3ccccc3OC(F)(F)F)c(=O)c12)c1cc(Cl)c(O)c(Cl)n1` [Example 133, 4,6-dichloro-N-(8-fluoro-4-oxo-3-{[2-(trifluoromethoxy)phenyl]methyl}-3,4-dihydroquinazolin-5-yl)-5-hydroxypyridine-2-carboxamide], the pIC50 was 6.30 to 7.00. `O=C(NC1CCCC1C(=O)NCc1ccccc1OC(F)(F)F)c1cc(Cl)c(O)c(Cl)n1` (stereo not shown) [Example 134, 4,6-dichloro-5-hydroxy-N-[2-({[2-(trifluoromethoxy)phenyl]methyl}carbamoyl)cyclopentyl] pyridine-2-carboxamide] showed a pIC50 of 6.00 to 6.30. `O=C(Nc1cccc2ncn(Cc3cccnc3F)c(=O)c12)c1cc(Cl)c(O)c(Cl)c1` [Example 137, 3,5-dichloro-N-{3-[(2-fluoropyridin-3-yl)methyl]-4-oxo-3,4-dihydroquinazolin-5-yl}-4-hydroxybenzamide] showed a pIC50 of 6.30 to 7.00. `O=C(Nc1cccc2ncn(Cc3cccnc3F)c(=O)c12)c1cc(Cl)c(O)c(Cl)n1` [Example 138, 4,6-dichloro-N-{3-[(2-fluoropyridin-3-yl)methyl]-4-oxo-3,4-dihydroquinazolin-5-yl}-5-hydroxypyridine-2-carboxamide] showed a pIC50 of 6.30 to 7.00. Work on `O=C(Nc1cccc2ncn(Cc3ncccc3F)c(=O)c12)c1cc(Cl)c(O)c(Cl)n1` [Example 140, 4,6-dichloro-N-(3-((3-fluoropyridin-2-yl)methyl)-4-oxo-3,4-dihydroquinazolin-5-yl)-5-hydroxypicolinamide] yielded a pIC50 of 6.30 to 7.00. `Cc1ccc(NC(=O)c2cc(Cl)c(O)c(Cl)n2)c2c(=O)n(Cc3ccccc3OC(F)(F)F)c(C)nc12` [Example 141, 4,6-dichloro-N-(2,8-dimethyl-4-oxo-3-(2-(trifluoromethoxy)benzyl)-3,4-dihydroquinazolin-5-yl)-5-hydroxypicolinamide] was tested, and the pIC50 was ≥ 7.00. Compound `Cc1ccc(NC(=O)c2cc(Cl)c(O)c(Cl)c2)c2c(=O)n(Cc3cccnc3C(F)(F)F)c(C)nc12` [Example 142, 3,5-dichloro-N-(2,8-dimethyl-4-oxo-3-((2-(trifluoromethyl)pyridin-3-yl)methyl)-3,4-dihydroquinazolin-5-yl)-4-hydroxybenzamide] has a pIC50 of 6.30 to 7.00. `O=C(Nc1cccc2ncn(Cc3ncccc3Cl)c(=O)c12)c1cc(Cl)c(O)c(Cl)c1` [Example 143, 3,5-dichloro-N-(3-((3-chloropyridin-2-yl)methyl)-4-oxo-3,4-dihydroquinazolin-5-yl)-4-hydroxybenzamide] was tested, and the pIC50 was ≥ 7.00. In the case of `O=C(N[C@H]1CCCC[C@@H]1C(=O)NCc1ccccc1OC(F)(F)F)c1cc(Cl)c(O)c(Cl)n1` [Example 144, 4,6-dichloro-5-hydroxy-N-((1S, 2S)-2-((2-(trifluoromethoxy)benzyl)carbamoyl)cyclohexyl)picolinamide], the pIC50 was < 5.00. With `O=C(N[C@@H]1CCCC[C@H]1C(=O)NCc1ccccc1OC(F)(F)F)c1cc(Cl)c(O)c(Cl)n1` [Example 145, 4,6-dichloro-5-hydroxy-N-((1R, 2R)-2-((2-(trifluoromethoxy)benzyl)carbamoyl)cyclohexyl)picolinamide] the pIC50 was 5.00 to 6.00. `Cc1ccc(NC(=O)c2cc(Cl)c(O)c(Cl)c2)c2c(=O)n(Cc3ncccc3C(F)(F)F)c(C)nc12` [Example 146, 3,5-dichloro-N-(2,8-dimethyl-4-oxo-3-((3-(trifluoromethyl)pyridin-2-yl)methyl)-3,4-dihydroquinazolin-5-yl)-4-hydroxybenzamide] was tested, and the pIC50 was ≥ 7.00. In the case of `Cc1ccc(NC(=O)c2cc(Cl)c(O)c(Cl)n2)c2c(=O)n(Cc3cccnc3C(F)(F)F)c(C)nc12` [Example 147, 4,6-dichloro-N-(2,8-dimethyl-4-oxo-3-((2-(trifluoromethyl)pyridin-3-yl)methyl)-3,4-dihydroquinazolin-5-yl)-5-hydroxypicolinamide], the pIC50 was 6.30 to 7.00. Work on `O=C(Nc1cccc2ncn(Cc3ncccc3Cl)c(=O)c12)c1cc(Cl)c(O)c(Cl)n1` [Example 148, 4,6-dichloro-N-(3-((3-chloropyridin-2-yl)methyl)-4-oxo-3,4-dihydroquinazolin-5-yl)-5-hydroxypicolinamide] yielded a pIC50 of 6.30 to 7.00. `Cc1ccc(NC(=O)c2cc(Cl)c(O)c(Cl)c2)c2c(=O)n(Cc3ccccc3OC(F)(F)F)c(C(F)F)nc12` [Example 149, 3,5-dichloro-N-(2-(difluoromethyl)-8-methyl-4-oxo-3-(2-(trifluoromethoxy)benzyl)-3,4-dihydroquinazolin-5-yl)-4-hydroxybenzamide] was tested, and the pIC50 was ≥ 7.00. `Cc1nc2c(F)ccc(NC(=O)c3cc(Cl)c(O)c(Cl)n3)c2c(=O)n1Cc1ccccc1OC(F)(F)F` [Example 150, 4,6-dichloro-N-(8-fluoro-2-methyl-4-oxo-3-(2-(trifluoromethoxy)benzyl)-3,4-dihydroquinazolin-5-yl)-5-hydroxypicolinamide] was tested, and the pIC50 was ≥ 7.00. With `Cc1ccc(NC(=O)c2cc(Cl)c(O)c(Cl)c2)c2c(=O)n(Cc3ccccc3C(F)(F)F)c(C)nc12` [Example 151, 3,5-dichloro-N-(2,8-dimethyl-4-oxo-3-(2-(trifluoromethyl)benzyl)-3,4-dihydroquinazolin-5-yl)-4-hydroxybenzamide] the pIC50 was ≥ 7.00. With `Cc1ccc(NC(=O)c2cc(Cl)c(O)c(Cl)c2)c2c(=O)n(Cc3ccccc3OC(F)(F)F)c(CF)nc12` [Example 152, 3,5-dichloro-N-(2-(fluoromethyl)-8-methyl-4-oxo-3-(2-(trifluoromethoxy)benzyl)-3,4-dihydroquinazolin-5-yl)-4-hydroxybenzamide] the pIC50 was 6.00 to 6.30. For `Cc1ccc(NC(=O)c2cc(Cl)c(O)c(Cl)n2)c2c(=O)n(Cc3ncccc3C(F)(F)F)c(C)nc12` [Example 153, 4,6-dichloro-N-(2,8-dimethyl-4-oxo-3-((3-(trifluoromethyl)pyridin-2-yl)methyl)-3,4-dihydroquinazolin-5-yl)-5-hydroxypicolinamide], the pIC50 was 6.30 to 7.00. With `Cc1nc2c(F)ccc(NC(=O)c3cc(Cl)c(O)c(Cl)c3)c2c(=O)n1Cc1ncccc1C(F)(F)F` [Example 154, 3,5-dichloro-N-(8-fluoro-2-methyl-4-oxo-3-((3-(trifluoromethyl)pyridin-2-yl)methyl)-3,4-dihydroquinazolin-5-yl)-4-hydroxybenzamide] the pIC50 was ≥ 7.00.
